Read-outs that look alike come from different tables or passages of the source.
Assays:
Assay in all cases: TGFα-shedding assay-based GPCR screening with chimeric Gα subunit proteins
Type in all cases: cell-based
348 GPCRs [1] = biological target: 348 GPCRs (Homo sapiens, UniProt P41146); settings: 10µM, Favipiravir 100μM
348 GPCRs [2] = biological target: T1, 348 GPCRs (Homo sapiens, UniProt Q9Y271)
T1 construct: expressed in transfected cells; host or cells: HEK293A
T1 sequence (Q9Y271 1-337): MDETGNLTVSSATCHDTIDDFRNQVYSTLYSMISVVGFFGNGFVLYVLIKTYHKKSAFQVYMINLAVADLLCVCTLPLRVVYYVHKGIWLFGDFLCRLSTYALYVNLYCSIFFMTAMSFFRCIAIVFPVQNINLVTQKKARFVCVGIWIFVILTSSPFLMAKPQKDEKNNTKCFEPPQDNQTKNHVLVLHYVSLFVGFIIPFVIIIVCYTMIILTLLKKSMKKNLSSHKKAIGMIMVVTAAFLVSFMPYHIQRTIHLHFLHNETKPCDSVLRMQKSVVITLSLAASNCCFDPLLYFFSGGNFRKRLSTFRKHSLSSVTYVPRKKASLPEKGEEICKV

348 GPCRs [3] = biological target: T2, 348 GPCRs (Homo sapiens, UniProt P04001); settings: 10µM, Favipiravir 100μM
T2 construct: expressed in transfected cells; host or cells: HEK293A
T2 sequence (P04001 1-364): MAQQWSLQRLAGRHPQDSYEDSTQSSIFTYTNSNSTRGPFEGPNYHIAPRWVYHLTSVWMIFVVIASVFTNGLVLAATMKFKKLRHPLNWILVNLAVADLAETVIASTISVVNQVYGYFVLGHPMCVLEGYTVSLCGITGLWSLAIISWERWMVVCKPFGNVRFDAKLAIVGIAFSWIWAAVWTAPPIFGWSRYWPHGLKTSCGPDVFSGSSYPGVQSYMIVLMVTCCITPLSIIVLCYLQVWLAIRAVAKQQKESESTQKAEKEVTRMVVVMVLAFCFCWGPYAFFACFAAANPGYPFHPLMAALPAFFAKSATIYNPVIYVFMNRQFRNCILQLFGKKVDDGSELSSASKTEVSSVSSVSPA

348 GPCRs [4] = biological target: T3, 348 GPCRs (Homo sapiens, UniProt P25106)
T3 construct: expressed in transfected cells; host or cells: HEK293A

348 GPCRs [5] = biological target: T4, 348 GPCRs (Homo sapiens, UniProt P25089); settings: 10µM, Favipiravir 100μM
T4 construct: expressed in transfected cells; host or cells: HEK293A
T4 sequence (P25089 1-353): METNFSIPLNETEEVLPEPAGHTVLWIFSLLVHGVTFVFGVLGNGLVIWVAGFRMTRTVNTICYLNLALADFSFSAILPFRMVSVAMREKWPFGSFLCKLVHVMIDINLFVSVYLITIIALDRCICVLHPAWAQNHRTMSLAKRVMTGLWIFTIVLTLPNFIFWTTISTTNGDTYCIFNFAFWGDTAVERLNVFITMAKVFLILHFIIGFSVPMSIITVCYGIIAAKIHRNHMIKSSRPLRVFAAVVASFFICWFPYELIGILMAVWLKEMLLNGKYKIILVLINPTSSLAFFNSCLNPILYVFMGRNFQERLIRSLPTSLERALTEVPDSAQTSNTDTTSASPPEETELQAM

348 GPCRs [6] = biological target: T5, 348 GPCRs (Homo sapiens, UniProt P30550); settings: 10µM, Favipiravir 100μM
T5 construct: expressed in transfected cells; host or cells: HEK293A

348 GPCRs [7] = biological target: 348 GPCRs (Homo sapiens, UniProt P35346); settings: 10µM, Favipiravir 100μM
348 GPCRs [8] = biological target: 348 GPCRs (Homo sapiens, UniProt Q9H228); settings: 10µM, Favipiravir 100μM
348 GPCRs [9] = biological target: T6, 348 GPCRs (Homo sapiens, UniProt Q8NFJ5); settings: 10µM, Favipiravir 100μM
T6 construct: expressed in transfected cells; host or cells: HEK293A

348 GPCRs [10] = biological target: T7, 348 GPCRs (Homo sapiens, UniProt P25100)
T7 construct: expressed in transfected cells; host or cells: HEK293A
T7 sequence (P25100 1-572): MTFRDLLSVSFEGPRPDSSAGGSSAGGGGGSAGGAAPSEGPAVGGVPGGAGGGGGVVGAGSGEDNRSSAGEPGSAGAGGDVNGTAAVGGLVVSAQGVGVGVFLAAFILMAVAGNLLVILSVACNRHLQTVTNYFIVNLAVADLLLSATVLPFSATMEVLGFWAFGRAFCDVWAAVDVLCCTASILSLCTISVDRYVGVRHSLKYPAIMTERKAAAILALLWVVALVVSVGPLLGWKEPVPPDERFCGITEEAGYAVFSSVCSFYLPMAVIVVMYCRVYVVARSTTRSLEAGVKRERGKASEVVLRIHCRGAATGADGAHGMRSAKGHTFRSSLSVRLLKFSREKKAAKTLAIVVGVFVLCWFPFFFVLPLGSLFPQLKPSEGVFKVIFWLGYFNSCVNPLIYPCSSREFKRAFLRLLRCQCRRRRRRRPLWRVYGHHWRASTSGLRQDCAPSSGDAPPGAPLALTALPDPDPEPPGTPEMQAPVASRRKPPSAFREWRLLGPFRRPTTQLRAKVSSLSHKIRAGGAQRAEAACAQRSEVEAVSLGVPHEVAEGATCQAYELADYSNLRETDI

[11] = OPRL1 (opioid Related Nociceptin Receptor 1), read-out: % GPCR activation compared to TPA
[12] = GPCR CysLT1 (cysteinyl leukotriene receptor 1), read-out: % GPCR activation compared to TPA
[13] = OPN1MW (opsin 1 (cone pigments), medium-wave-sensitive), read-out: % GPCR activation compared to TPA
[14] = GPCR CXCR7 (chemokine (C-X-C motif) receptor 7), read-out: % GPCR activation compared to TPA
[15] = FPR3 (formyl peptide receptor 3), read-out: % GPCR activation compared to TPA
[16] = GRPR (gastrin-releasing peptide receptor), read-out: % GPCR activation compared to TPA
[17] = SSTR5 (somatostatin receptor 5), read-out: % GPCR activation compared to TPA
[18] = S1PR5 (sphingosine-1-phosphate receptor 5), read-out: % GPCR activation compared to TPA
[19] = GPRC5A (G protein-coupled receptor class C group 5 member A), read-out: % GPCR activation compared to TPA
[20] = GPCR α1D (adrenoceptor alpha 1D), read-out: % GPCR activation compared to TPA
[21] = read-out: % GPCR activation compared to TPA, OPRL1 (opioid Related Nociceptin Receptor 1)
[22] = read-out: % GPCR activation compared to TPA, GPCR CysLT1 (cysteinyl leukotriene receptor 1)
[23] = read-out: % GPCR activation compared to TPA, OPN1MW (opsin 1 (cone pigments), medium-wave-sensitive)
[24] = read-out: % GPCR activation compared to TPA, GPCR CXCR7 (chemokine (C-X-C motif) receptor 7)
[25] = read-out: % GPCR activation compared to TPA, FPR3 (formyl peptide receptor 3)
[26] = read-out: % GPCR activation compared to TPA, GRPR (gastrin-releasing peptide receptor)
[27] = read-out: % GPCR activation compared to TPA, SSTR5 (somatostatin receptor 5)
[28] = read-out: % GPCR activation compared to TPA, S1PR5 (sphingosine-1-phosphate receptor 5)
[29] = read-out: % GPCR activation compared to TPA, GPRC5A (G protein-coupled receptor class C group 5 member A)
[30] = read-out: % GPCR activation compared to TPA, GPCR α1D (adrenoceptor alpha 1D)

Chain of 348 GPCRs (Homo sapiens, UniProt P41146) (P41146 whole entry): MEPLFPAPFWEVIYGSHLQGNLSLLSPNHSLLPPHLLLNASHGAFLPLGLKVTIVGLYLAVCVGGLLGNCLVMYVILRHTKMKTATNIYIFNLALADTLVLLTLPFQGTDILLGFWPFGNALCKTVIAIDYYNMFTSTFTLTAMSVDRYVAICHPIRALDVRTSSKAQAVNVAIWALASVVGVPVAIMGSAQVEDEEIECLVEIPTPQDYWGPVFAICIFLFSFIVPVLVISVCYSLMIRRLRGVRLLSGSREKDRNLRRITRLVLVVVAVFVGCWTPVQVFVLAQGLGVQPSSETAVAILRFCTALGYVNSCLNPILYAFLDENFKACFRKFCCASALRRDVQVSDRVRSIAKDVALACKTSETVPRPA
T5 sequence (P30550 whole entry): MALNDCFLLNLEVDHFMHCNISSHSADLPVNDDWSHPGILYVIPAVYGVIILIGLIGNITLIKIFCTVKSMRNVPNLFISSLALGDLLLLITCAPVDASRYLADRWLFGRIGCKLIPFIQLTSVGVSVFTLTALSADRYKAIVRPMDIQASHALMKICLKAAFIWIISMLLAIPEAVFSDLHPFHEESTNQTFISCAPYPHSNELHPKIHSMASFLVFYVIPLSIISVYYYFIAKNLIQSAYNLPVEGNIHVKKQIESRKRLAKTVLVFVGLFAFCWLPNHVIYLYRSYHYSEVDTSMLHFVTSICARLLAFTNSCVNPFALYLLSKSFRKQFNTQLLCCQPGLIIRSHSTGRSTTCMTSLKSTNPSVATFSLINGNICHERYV
Chain of 348 GPCRs (Homo sapiens, UniProt P35346) (P35346 whole entry): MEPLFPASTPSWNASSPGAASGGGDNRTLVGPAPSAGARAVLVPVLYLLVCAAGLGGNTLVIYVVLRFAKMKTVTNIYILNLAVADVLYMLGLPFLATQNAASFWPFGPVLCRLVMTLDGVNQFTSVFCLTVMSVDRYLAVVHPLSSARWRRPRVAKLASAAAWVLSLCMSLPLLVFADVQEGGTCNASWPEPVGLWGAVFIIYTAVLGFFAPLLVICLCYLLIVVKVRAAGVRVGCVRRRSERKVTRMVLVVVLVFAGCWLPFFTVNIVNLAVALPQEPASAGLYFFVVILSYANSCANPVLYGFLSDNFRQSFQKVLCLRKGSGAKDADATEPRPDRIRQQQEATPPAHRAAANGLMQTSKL
T6 sequence (Q8NFJ5 whole entry): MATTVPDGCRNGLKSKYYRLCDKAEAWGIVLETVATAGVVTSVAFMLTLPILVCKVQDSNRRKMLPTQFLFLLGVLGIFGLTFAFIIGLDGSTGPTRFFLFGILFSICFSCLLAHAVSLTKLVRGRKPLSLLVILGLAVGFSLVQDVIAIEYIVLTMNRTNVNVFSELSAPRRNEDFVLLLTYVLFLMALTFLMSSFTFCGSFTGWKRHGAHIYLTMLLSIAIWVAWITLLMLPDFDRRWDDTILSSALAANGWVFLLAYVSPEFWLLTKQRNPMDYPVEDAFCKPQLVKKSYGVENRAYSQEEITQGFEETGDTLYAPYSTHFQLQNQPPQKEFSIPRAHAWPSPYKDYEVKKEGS
T3 sequence (P25106 whole entry): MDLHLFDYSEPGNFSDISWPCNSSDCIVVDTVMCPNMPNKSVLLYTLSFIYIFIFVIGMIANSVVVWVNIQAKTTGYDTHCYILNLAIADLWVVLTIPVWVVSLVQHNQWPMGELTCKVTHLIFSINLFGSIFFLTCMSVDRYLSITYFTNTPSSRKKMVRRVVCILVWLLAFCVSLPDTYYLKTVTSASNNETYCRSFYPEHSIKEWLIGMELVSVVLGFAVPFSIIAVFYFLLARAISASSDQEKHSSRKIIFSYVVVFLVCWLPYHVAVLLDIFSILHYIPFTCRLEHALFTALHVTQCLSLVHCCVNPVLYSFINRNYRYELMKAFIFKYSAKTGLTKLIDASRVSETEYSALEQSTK
Chain of 348 GPCRs (Homo sapiens, UniProt Q9H228) (Q9H228 whole entry): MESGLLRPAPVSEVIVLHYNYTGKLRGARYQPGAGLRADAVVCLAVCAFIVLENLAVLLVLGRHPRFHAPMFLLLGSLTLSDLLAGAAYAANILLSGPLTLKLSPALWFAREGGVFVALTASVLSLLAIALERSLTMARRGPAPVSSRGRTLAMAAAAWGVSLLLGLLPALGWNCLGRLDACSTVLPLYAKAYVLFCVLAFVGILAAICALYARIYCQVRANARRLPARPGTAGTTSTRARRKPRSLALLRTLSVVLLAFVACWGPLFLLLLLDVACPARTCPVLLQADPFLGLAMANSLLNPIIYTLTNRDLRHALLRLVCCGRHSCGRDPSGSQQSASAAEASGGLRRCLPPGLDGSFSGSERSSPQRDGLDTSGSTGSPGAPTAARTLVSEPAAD

activation at 10 µM (348 GPCRs [1]; [11]) [%] | activation at 10 µM (348 GPCRs [2]; [12]) [%] | activation at 100 µM (348 GPCRs [3]; [13]) [%] | activation at 10 µM (348 GPCRs [4]; [14]) [%] | activation at 100 µM (348 GPCRs [5]; [15]) [%] | activation at 10 µM (348 GPCRs [6]; [16]) [%] | activation at 10 µM (348 GPCRs [7]; [17]) [%] | activation at 10 µM (348 GPCRs [8]; [18]) [%] | activation at 100 µM (348 GPCRs [9]; [19]) [%] | activation at 10 µM (348 GPCRs [10]; [20]) [%] | Structure (SMILES) | activation at 10 µM (348 GPCRs [1]; [21]) [%] | activation at 10 µM (348 GPCRs [2]; [22]) [%] | activation at 100 µM (348 GPCRs [3]; [23]) [%] | activation at 10 µM (348 GPCRs [4]; [24]) [%] | activation at 100 µM (348 GPCRs [5]; [25]) [%] | activation at 10 µM (348 GPCRs [6]; [26]) [%] | activation at 10 µM (348 GPCRs [7]; [27]) [%] | activation at 10 µM (348 GPCRs [8]; [28]) [%] | activation at 100 µM (348 GPCRs [9]; [29]) [%] | activation at 10 µM (348 GPCRs [10]; [30]) [%] | other results
-0.87 | -1.14 | -1.4 | 1.43 | 2.5 | -1.56 | -0.162 | -0.465 | 6.76 | -1.11 | N#C[C@@]1(c2ccc3c(N)ncnn23)O[C@H](CO)[C@@H](O)[C@H]1O [GS441524] | – | – | – | – | – | – | – | – | – | – | –
-1.44 | – | -0.549 | – | 0.4 | -1.14 | 2.28 | 1.49 | 8.99 | – | NC(=O)c1nc(F)cnc1O [favipiravir, 6-fluoro-3-hydroxy-2-pyrazinecarboxamide] | – | – | – | – | – | – | – | – | – | – | activation at 100 µM (348 GPCRs [2]; GPCR CysLT1 (cysteinyl leukotriene receptor 1), 100μM, read-out: % GPCR activation compared to TPA): -0.478%; activation at 100 µM (348 GPCRs [4]; GPCR CXCR7 (chemokine (C-X-C motif) receptor 7), 100μM, read-out: % GPCR activation compared to TPA): -1.9%; activation at 100 µM (348 GPCRs [10]; GPCR α1D (adrenoceptor alpha 1D), 100μM, read-out: % GPCR activation compared to TPA): 1.16%
-2.5 | -1.72 | -0.857 | -1.56 | -1.95 | -3.58 | -2.28 | -0.945 | -5.54 | 0.273 | CC(C)C(=O)OC[C@H]1O[C@@H](n2ccc(NO)nc2=O)[C@H](O)[C@@H]1O [molnupiravir] | – | – | – | – | – | – | – | – | – | – | –

Continued, compound first:

Structure (SMILES) | activation at 10 µM (348 GPCRs [1]; [11]) [%] | activation at 10 µM (348 GPCRs [2]; [12]) [%] | activation at 100 µM (348 GPCRs [3]; [13]) [%] | activation at 10 µM (348 GPCRs [4]; [14]) [%] | activation at 100 µM (348 GPCRs [5]; [15]) [%] | activation at 10 µM (348 GPCRs [6]; [16]) [%] | activation at 10 µM (348 GPCRs [7]; [17]) [%] | activation at 10 µM (348 GPCRs [8]; [18]) [%] | activation at 100 µM (348 GPCRs [9]; [19]) [%] | activation at 10 µM (348 GPCRs [10]; [20]) [%] | activation at 10 µM (348 GPCRs [1]; [21]) [%] | activation at 10 µM (348 GPCRs [2]; [22]) [%] | activation at 100 µM (348 GPCRs [3]; [23]) [%] | activation at 10 µM (348 GPCRs [4]; [24]) [%] | activation at 100 µM (348 GPCRs [5]; [25]) [%] | activation at 10 µM (348 GPCRs [6]; [26]) [%] | activation at 10 µM (348 GPCRs [7]; [27]) [%] | activation at 10 µM (348 GPCRs [8]; [28]) [%] | activation at 100 µM (348 GPCRs [9]; [29]) [%] | activation at 10 µM (348 GPCRs [10]; [30]) [%] | other results
CCC(CC)COC(=O)[C@H](C)N[P@](=O)(OC[C@H]1O[C@@](C#N)(c2ccc3c(N)ncnn23)[C@H](O)[C@@H]1O)Oc1ccccc1 [remdesivir] | – | – | – | – | – | – | – | – | – | – | -1.46 | 0.442 | 1.48 | 0.898 | 3.79 | -2.02 | -0.348 | -1.2 | 9.99 | 1.67 | –
CC(C)OC(=O)[C@H](C)N[P@](=O)(OC[C@H]1O[C@@H](n2ccc(=O)[nH]c2=O)[C@](C)(F)[C@@H]1O)Oc1ccccc1 [sofosbuvir] | – | – | – | – | – | – | – | – | – | – | 0.297 | -1.58 | -1.41 | -0.832 | -0.773 | -1.24 | -0.552 | -0.326 | -9.13 | 0.0197 | –
